How the values were obtained:
[1] = target: Trm11–Trm112 complex (Saccharomyces cerevisiae, UniProt Q12463); assay: biochemical
[2] = target: Trm11–Trm112 complex (Saccharomyces cerevisiae, UniProt Q12463, D291A); assay: biochemical
Sequence of Trm11–Trm112 complex (Saccharomyces cerevisiae, UniProt Q12463, D291A) (Q12463 whole entry D291A): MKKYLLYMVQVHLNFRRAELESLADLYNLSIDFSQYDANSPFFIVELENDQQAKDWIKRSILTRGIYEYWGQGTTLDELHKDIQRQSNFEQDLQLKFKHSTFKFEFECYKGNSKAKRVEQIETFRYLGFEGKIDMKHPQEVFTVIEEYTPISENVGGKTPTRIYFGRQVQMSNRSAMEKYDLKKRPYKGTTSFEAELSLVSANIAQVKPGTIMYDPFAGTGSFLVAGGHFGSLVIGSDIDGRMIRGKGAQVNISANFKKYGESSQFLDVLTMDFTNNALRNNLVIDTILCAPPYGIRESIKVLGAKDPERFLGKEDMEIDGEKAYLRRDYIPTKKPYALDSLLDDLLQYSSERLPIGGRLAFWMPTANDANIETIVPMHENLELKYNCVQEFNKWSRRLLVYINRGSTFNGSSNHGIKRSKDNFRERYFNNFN
Sequence of Trm11–Trm112 complex (Saccharomyces cerevisiae, UniProt Q12463, D291A) (P53738 whole entry partner): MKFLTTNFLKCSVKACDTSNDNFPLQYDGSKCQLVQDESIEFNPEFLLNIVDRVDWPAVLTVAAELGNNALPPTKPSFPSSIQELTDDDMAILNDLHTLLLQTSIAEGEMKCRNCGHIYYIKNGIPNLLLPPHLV

Sequence of Trm11–Trm112 complex (Saccharomyces cerevisiae, UniProt Q12463) (Q12463 whole entry): as the sequence (Q12463 whole entry D291A) above, with A291D counted along it
Sequence of Trm11–Trm112 complex (Saccharomyces cerevisiae, UniProt Q12463) (P53738 whole entry partner): as the sequence (P53738 whole entry partner) above

## C[S+](CC[C@H](N)C(=O)O)C[C@H]1O[C@@H](n2cnc3c(N)ncnc32)[C@H](O)[C@@H]1O (some centres unmarked) [SAM]
[1]
  Kd: 1900 ± 300 nM
[2]
  Kd: 3400 ± 600 nM
